Each block holds one compound with its values, some of them ahead of it.
Legend:
[1] = target: T1, Avi-KRAS WT (1-169) GppNHp/RAF1 RBD-3×FLAG (52-151) (Homo sapiens, UniProt P01116); experiment: Disrupting RAS-effector binding HTRF assay, Raf1 RBD-KRAS WT-GppNHp; conditions: PPI HTRF, 50 nM Avi-KRAS WT GppNHp, compound titration 30-0.0045 μM; read-out: Raf1 RBD-KRAS WT-GppNHp disruption
T1 construct: 50 nM Avi-KRAS WT (1-169) GppNHp/RAF1 RBD-3×FLAG (52-151)
Protocol: (§1) A protein:protein interaction (PPI) Homogeneous Time Resolved Fluorescence (HTRF) assay was used to determine the effectiveness of compounds of the present disclosure in disrupting KRAS protein and effector RAF1 binding.
(§2) The HTRF assay used the following reagents and proteins: (i) 50 nM Avi-KRAS G12D (1-169) GppNHp/RAF1 RBD-3×FLAG (52-151); (ii) 50 nM Avi-KRAS G12R (1-169) GppNHp/RAF1 RBD-3×FLAG (52-151); (iii) 50 nM Avi-KRAS G12V (1-169) GppNHp/RAF1 RBD-3×FLAG (52-151), (iv) 50 nM Avi-KRAS WT (1-169) GppNHp/RAF1 RBD-3×FLAG (52-151); and (v) 75 nM Avi-RAF1 RBD-3×FLAG. The assay buffer included: 50 mM Tris pH 7.5, 100 mM NaCl, 5 mM MgCl2, 0.1% BSA, […], 10% DMSO. The bead buffer included: 50 mM Tris pH 7.5, 0.01% o Tween 20. Assay volume of 20 μL was used in a 384 well plate-low volume format. Compound titration: 30-0.0045 μM, 3× dilution series.
(§3) The HTRF assay employed the following protocol:
(§4) Compounds were dispensed in assay plate (384-well, Grenier Bione #784075) using Echo (model 555) with dose response settings: 200 nL final volume, titration from 30 μM as a 10-point dilution series. Protein mix was prepared in assay buffer, and dispensed on plates, 10 μL per well, then incubated for 1 h at room temperature, with 700 rpm shaking. Reagents mix was prepared and dispensed on plates, 10 μL per well, then incubated for 1 h at room temperature, with 700 rpm shaking.
(§5) Plates were analyzed on an Envision plate reader using the following setting: Excitation 320 nm, Bandwidth 75 nM; Emission 615 nm, Bandwidth 85 nM, Gain 100%, Flashes 100, Lag 60 μs. Data were reported as percentage of activity, with DMSO as 100%. Data were plotted and analyzed using Prism 8.
(§6) The biochemical Raf1-KRAS G12D/G12R/G12V/WT-GppNHP disruption assay IC50 of selected compounds described herein are shown in Table 4.

[2] = target: T2, Avi-KRAS G12R (1-169) GppNHp/RAF1 RBD-3×FLAG (52-151) (Homo sapiens, UniProt P01116, G12R); experiment: Disrupting RAS-effector binding HTRF assay, Raf1 RBD-KRAS G12R-GppNHp; conditions: PPI HTRF, 50 nM Avi-KRAS G12R GppNHp, compound titration 30-0.0045 μM; read-out: Raf1 RBD-KRAS G12R-GppNHp disruption
T2 construct: 50 nM Avi-KRAS G12R (1-169) GppNHp/RAF1 RBD-3×FLAG (52-151)
Protocol: as §1, §2, §3, §4, §5, §6

[3] = target: T3, Avi-KRAS G12V (1-169) GppNHp/RAF1 RBD-3×FLAG (52-151) (Homo sapiens, UniProt P01116, G12V); experiment: Disrupting RAS-effector binding HTRF assay, Raf1 RBD-KRAS G12V-GppNHp; conditions: PPI HTRF, 50 nM Avi-KRAS G12V GppNHp, compound titration 30-0.0045 μM; read-out: Raf1 RBD-KRAS G12V-GppNHp disruption
T3 construct: 50 nM Avi-KRAS G12V (1-169) GppNHp/RAF1 RBD-3×FLAG (52-151)
Protocol: as §1, §2, §3, §4, §5, §6

[4] = system: KRAS G12V protein/effector signaling in SW620 cells; experiment: Cell-based pERK HTRF assay in SW620 cell; conditions: Homo sapiens, SW-620, 1 h incubation
Protocol: pERK assay (Perkin Elmer) was used to determine the effectiveness of compounds in disrupting KRAS G12V protein/effector signaling in cells.
On Day 1, cells (SW620) were seeded into 96-well plates at 3×10^4 cells/well in 80 μL complete growth media (DMEM, 10% FBS).
(§7) On Day 2, cells were treated with compounds at 0.25% DMSO. The source plate was created with compounds diluted in media at 5-fold the final assay concentration. The compounds were run in a 9-point concentration curve starting at 10 μM, with a half-log dilution between concentrations. 20 μL was transferred onto the cell plates (final volume in wells was 100 μL). Plates were harvested after 1 h incubation by aspirating media and adding kit-supplied 1× supplemented lysis buffer to all wells (50 μL per well). Plates were then placed on a plate shaker and incubated at 850 rpm for an additional 30 min.
Antibody mixture solution was prepared by diluting aliquoted d2 and Eu Cryptate antibodies 1:20 in kit supplied detection buffer, and mixing the diluted antibodies solutions (1:1 v:v). Four μL of this solution was then added to a 384-well detection plate (Perkin Elmer; 6008230).
(§8) Samples were homogenized by pipetting up and down and then transferred (16 μL of cell lysates) from the 96-well cell culture plate to two wells of the HTRF 384-well detection plate containing the antibody solution. Plates were centrifuged (524 g for 1 min) and allowed to incubate between 4 and 24 h at room temperature. Maximum signal was reached after 4 h incubation time and remained stable over a period of 24 hours. Therefore, readings could be made between 4 and 24 h of incubation. Plates were centrifuged again (524 g for 1 min), then analyzed on the EnVision plate reader using the following settings: Excitation 320 nm, Bandwidth 75 nm; Emission 615 nm, Bandwidth 85 nm; Gain 100%; Flashes 100; Lag 60 μs.

[5] = target: T4, Avi-KRAS G12D (1-169) GppNHp/RAF1 RBD-3×FLAG (52-151) (Homo sapiens, UniProt P01116, G12D); experiment: Disrupting RAS-effector binding HTRF assay, Raf1 RBD-KRAS G12D-GppNHp; conditions: PPI HTRF, 50 nM Avi-KRAS G12D GppNHp, compound titration 30-0.0045 μM; read-out: Raf1 RBD-KRAS G12D-GppNHp disruption
T4 construct: 50 nM Avi-KRAS G12D (1-169) GppNHp/RAF1 RBD-3×FLAG (52-151)
Protocol: as §1, §2, §3, §4, §5, §6

[6] = system: KRAS G12D protein/effector signaling in GP2d cells; experiment: Cell-based pERK HTRF assay in GP2d cell; conditions: 1 h, 60 min incubation
Protocol: A pERK assay (Perkin Elmer) was used to determine the effectiveness of compounds in disrupting KRAS G12D protein/effector signaling in cells.
On Day 1, cells (GP2d) were seeded into 96-well plates at 3×10^4 cells/well in 80 μL complete growth media (DMEM, 10% FBS).
as §7, with “[…],” for “10 μM,”, “60 min” for “1 h”
Antibody mixture solution was prepared by diluting aliquoted d2 and Eu Cryptate antibodies 1:20 in kit supplied detection buffer, and mixing the diluted antibodies solutions (1:1 v:v). 4 μL of this solution was then added to a 384-well detection plate (Perkin Elmer; 6008230).
as §8

T4 sequence (P01116 1-169 isoform P01116-2 G12D limits assumed): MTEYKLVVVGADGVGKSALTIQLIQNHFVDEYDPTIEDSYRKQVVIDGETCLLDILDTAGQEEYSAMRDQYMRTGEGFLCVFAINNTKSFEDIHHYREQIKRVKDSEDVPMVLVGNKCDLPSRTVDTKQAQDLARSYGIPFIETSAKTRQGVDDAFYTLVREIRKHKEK
T1 sequence (P01116 1-169 isoform P01116-2 limits assumed): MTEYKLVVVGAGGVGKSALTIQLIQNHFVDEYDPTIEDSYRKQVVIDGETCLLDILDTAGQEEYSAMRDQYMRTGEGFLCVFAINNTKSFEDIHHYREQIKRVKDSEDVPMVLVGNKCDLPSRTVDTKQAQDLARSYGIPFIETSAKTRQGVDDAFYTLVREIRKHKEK
T2 sequence (P01116 1-169 isoform P01116-2 G12R limits assumed): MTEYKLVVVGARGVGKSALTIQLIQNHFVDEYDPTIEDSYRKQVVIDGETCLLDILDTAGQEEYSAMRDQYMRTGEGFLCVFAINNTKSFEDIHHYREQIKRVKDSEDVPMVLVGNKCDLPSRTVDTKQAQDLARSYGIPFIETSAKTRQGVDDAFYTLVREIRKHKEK
T3 sequence (P01116 1-169 isoform P01116-2 G12V limits assumed): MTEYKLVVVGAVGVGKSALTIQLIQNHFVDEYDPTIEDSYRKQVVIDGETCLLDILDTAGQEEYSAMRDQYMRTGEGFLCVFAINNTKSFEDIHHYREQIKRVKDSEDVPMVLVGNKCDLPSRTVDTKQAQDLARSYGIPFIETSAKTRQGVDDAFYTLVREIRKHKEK

Structure (SMILES): N#Cc1c(N)sc2c(F)ccc(-c3c(C(F)(F)F)cc4c(N5CC6CCC(C5)N6)nc(OCCCCO)nc4c3F)c12 [Compound 41]
IC50 [1]: 1 to 10 µM | IC50 [2]: > 10 µM | IC50 [3]: > 10 µM | IC50 [4]: > 10 µM | IC50 [5]: 0.1 to 1 µM | IC50 [6]: ≤ 0.1 µM

Structure (SMILES): N#Cc1c(N)sc2c(F)ccc(-c3c(C(F)(F)F)cc4c(N5CC6CCC(C5)N6)nc(O[C@@H]5CCOC5)nc4c3F)c12 [Compound 68]
IC50 [4]: > 10 µM | IC50 [6]: ≤ 0.1 µM

Structure (SMILES): CO[C@@H](C)COc1nc(N2CC3CCC(C2)N3)c2cc(C(F)(F)F)c(-c3ccc(F)c4sc(N)c(C#N)c34)c(F)c2n1 [Compound 72]
IC50 [4]: > 10 µM | IC50 [6]: ≤ 0.1 µM

Structure (SMILES): COC[C@H](C)Oc1nc(N2CC3CCC(C2)N3)c2cc(C(F)(F)F)c(-c3ccc(F)c4sc(N)c(C#N)c34)c(F)c2n1 [Compound 71]
IC50 [4]: > 10 µM | IC50 [6]: ≤ 0.1 µM

Structure (SMILES): CC(=O)N(C)c1nc(N2C[C@H]3CC[C@@H](C2)N3)c2cc(C(F)(F)F)c(-c3ccc(F)c4sc(N)c(C#N)c34)c(F)c2n1 [Compound 21, N-(7-(2-amino-3-cyano-7-fluorobenzo[b]thiophen-4-yl)-4-((1R,5S)-3,8-diazabicyclo[3.2.1]octan-3-yl)-8-fluoro-6-(trifluoromethyl)quinazolin-2-yl)-N-methylacetamide]
IC50 [1]: 1 to 10 µM | IC50 [2]: > 10 µM | IC50 [3]: > 10 µM | IC50 [5]: > 10 µM | IC50 [6]: 0.1 to 1 µM

IC50 [1]: > 10 µM | IC50 [2]: > 10 µM | IC50 [3]: > 10 µM | IC50 [5]: 1 to 10 µM | IC50 [6]: 0.1 to 1 µM
Structure (SMILES): COc1nc(N(C)[C@@H]2CCNC2)c2cc(C(F)(F)F)c(-c3ccc(F)c4sc(N)c(C#N)c34)c(F)c2n1 [Compound 59]

Structure (SMILES): N#Cc1c(N)sc2c(F)ccc(-c3c(C(F)(F)F)cc4c(N5C[C@H]6CC[C@@H](C5)N6)ncnc4c3F)c12 [Compound 5, 4-(4-((1R,5S)-3,8-diazabicyclo[3.2.1]octan-3-yl)-8-fluoro-6-(trifluoromethyl)quinazolin-7-yl)-2-amino-7-fluorobenzo[b]thiophene-3-carbonitrile]
IC50 [1]: 1 to 10 µM | IC50 [2]: > 10 µM | IC50 [3]: > 10 µM | IC50 [5]: 1 to 10 µM | IC50 [6]: ≤ 0.1 µM

IC50 [1]: > 10 µM | IC50 [2]: > 10 µM | IC50 [3]: > 10 µM | IC50 [5]: 1 to 10 µM | IC50 [6]: 0.1 to 1 µM
Structure (SMILES): CN(c1ncnc2c(F)c(-c3ccc(F)c4sc(N)c(C#N)c34)c(C(F)(F)F)cc12)[C@@H]1CCNC1 [Compound 58]

Structure (SMILES): N#Cc1c(N)sc2c(F)ccc(-c3c(C(F)(F)F)cc4c(N5CC6CCC(C5)N6)nc(OC5CC(O)C5)nc4c3F)c12 (stereo not shown) [Compound 11]
IC50 [1]: > 10 µM | IC50 [2]: > 10 µM | IC50 [3]: > 10 µM | IC50 [5]: 1 to 10 µM | IC50 [6]: 0.1 to 1 µM

Structure (SMILES): N#Cc1c(N)sc2c(F)ccc(-c3c(C(F)(F)F)cc4c(N5CC6CCC(C5)N6)nc(OC[C@H]5CNC(=O)C5)nc4c3F)c12 [Compound 24]
IC50 [1]: 0.1 to 1 µM | IC50 [2]: 1 to 10 µM | IC50 [3]: 1 to 10 µM | IC50 [5]: 0.1 to 1 µM | IC50 [6]: ≤ 0.1 µM

Structure (SMILES): COC[C@@H](C)Oc1nc(N2CC3CCC(C2)N3)c2cc(C(F)(F)F)c(-c3ccc(F)c4sc(N)c(C#N)c34)c(F)c2n1 [Compound 67]
IC50 [4]: > 10 µM | IC50 [6]: ≤ 0.1 µM

Structure (SMILES): N#Cc1c(N)sc2c(F)ccc(-c3c(C(F)(F)F)cc4c(N5CC6CCC(C5)N6)nc(OCCc5ccccc5)nc4c3F)c12 [Compound 13]
IC50 [1]: > 10 µM | IC50 [2]: > 10 µM | IC50 [3]: > 10 µM | IC50 [5]: 1 to 10 µM | IC50 [6]: 0.1 to 1 µM

Structure (SMILES): CCCc1nc(N2CC3CCC(C2)N3)c2cc(C(F)(F)F)c(-c3ccc(F)c4sc(N)c(C#N)c34)c(F)c2n1 [Compound 23]
IC50 [1]: 1 to 10 µM | IC50 [2]: > 10 µM | IC50 [3]: > 10 µM | IC50 [5]: 1 to 10 µM | IC50 [6]: ≤ 0.1 µM

Structure (SMILES): CO[C@H](C)COc1nc(N2CC3CCC(C2)N3)c2cc(C(F)(F)F)c(-c3ccc(F)c4sc(N)c(C#N)c34)c(F)c2n1 [Compound 66]
IC50 [4]: > 10 µM | IC50 [6]: ≤ 0.1 µM

Structure (SMILES): N#Cc1c(N)sc2c(F)ccc(-c3c(C(F)(F)F)cc4c(N5CC6CCC(C5)N6)nc(OCCc5cn[nH]c5)nc4c3F)c12 [Compound 19]
IC50 [1]: 1 to 10 µM | IC50 [2]: > 10 µM | IC50 [3]: > 10 µM | IC50 [5]: 1 to 10 µM | IC50 [6]: ≤ 0.1 µM

Structure (SMILES): N#Cc1c(N)sc2c(F)ccc(-c3c(C(F)(F)F)cc4c(N5CC6CCC(C5)N6)nc(OC5CCOCC5)nc4c3F)c12 [Compound 70]
IC50 [4]: > 10 µM | IC50 [6]: ≤ 0.1 µM

Structure (SMILES): CN(C)c1nc(N2C[C@H]3CC[C@@H](C2)N3)c2cc(C(F)(F)F)c(-c3ccc(F)c4sc(N)c(C#N)c34)c(F)c2n1 [Compound 10, 4-(4-((1R,5S)-3,8-diazabicyclo[3.2.1]octan-3-yl)-2-(dimethylamino)-8-fluoro-6-(trifluoromethyl)quinazolin-7-yl)-2-amino-7-fluorobenzo[b]thiophene-3-carbonitrile]
IC50 [1]: > 10 µM | IC50 [2]: > 10 µM | IC50 [3]: > 10 µM | IC50 [5]: 1 to 10 µM | IC50 [6]: > 1 µM

Structure (SMILES): N#Cc1c(N)sc2c(F)ccc(-c3c(C(F)(F)F)cc4c(N5CC6CCC(C5)N6)nc(O[C@H]5CCOC5)nc4c3F)c12 [Compound 69]
IC50 [4]: > 10 µM | IC50 [6]: ≤ 0.1 µM

Source: patent US20260035376A1, “COMPOSITIONS AND METHODS FOR INHIBITION OF RAS” (TheRas, Inc., priority 2022, published 2026)
